# Reference: patent US20200207835A1, “SRCP1-BASED THERAPY FOR DISEASES ASSOCIATED WITH PROTEIN AGGREGATION” (THE MEDICAL COLLEGE OF WISCONSIN, INC., priority 2017, published 2020)
# Changes are numbered by the printed parent chain. In names and notes the source's numbering stands. Like-named read-outs stand apart in the source and are kept apart here. Residues, ends and D or L forms follow the SMILES beside them. No end group written: not given here. *: point of attachment. Cbz = O=C(OCc1ccccc1)*
# B1: ^RFPSRCP1^61-70A: SRCP1 with amino acids 61-70 mutated to alanine (protein)
# chain: MTILSTFTSFSNPPKLNKSSFSSSTGSSLSMGSNSFAWGGGWGGFGGPKGGSFNVDIAGNAAAAAAAAAAGGVGLVKWRGLQKGCKQP
# modifications: left off: large carriers
# notes: SRCP1 with amino acids 61-70 mutated to alanine
# B2: ^RFPSRCP1^V65A: SRCP1 point mutant, V65 mutated to alanine (protein)
# chain: B1 chain with A61L, A62I, A63W, A64G, A66Y, A67G, A68F, A69I, A70R
# modifications: left off: large carriers
# notes: SRCP1 point mutant, V65 mutated to alanine
# B3: ^RFPSRCP1^I69A: SRCP1 point mutant, I69 mutated to alanine (protein)
# chain: B1 chain with A61L, A62I, A63W, A64G, A65V, A66Y, A67G, A68F, A70R
# modifications: left off: large carriers
# notes: SRCP1 point mutant, I69 mutated to alanine
# B4: ^RFPSRCP1^ST1: SRCP1 with all N-terminal serine and threonine residues mutated to alanine (protein)
# chain: MAILAAFAAFANPPKLNKAAFAAAAGAALAMGANAFAWGGGWGGFGGPKGGSFNVDIAGNLIWGVYGFIRGGVGLVKWRGLQKGCKQP
# modifications: left off: large carriers
# notes: SRCP1 with all N-terminal serine and threonine residues mutated to alanine
# B5: ^RFPSRCP1^71-80A: SRCP1 with amino acids 71-80 mutated to alanine (protein)
# chain: MTILSTFTSFSNPPKLNKSSFSSSTGSSLSMGSNSFAWGGGWGGFGGPKGGSFNVDIAGNLIWGVYGFIRAAAAAAAAAALQKGCKQP
# modifications: left off: large carriers
# notes: SRCP1 with amino acids 71-80 mutated to alanine
# Tests used:
# [1] = system: ^GFPHtt^ex1Q74; experiment: GFPHttex1Q74 aggregation in transfected HEK293 cells (fluorescent/confocal microscopy, western blot, filter trap assay); assay type: cell-based, human; settings: for ability of SRCP1 mutant to suppress GFPHttex1Q74 aggregation: HEK293, 48 hours post-transfection, western blot and fluorescent microscopy; for ability of SRCP1 point mutant to suppress GFPHttex1Q74 aggregation: HEK293, fluorescence microscopy
# Experimental: Transfections were performed with Lipofectamine 2000 (Invitrogen by ThermoFisher Scientific) and adapted from the manufacturer's instructions. Briefly, cells were plated on either 12-well or 6-well plates and transfected at 50-70% confluency. For 12-well transfections, 0.833 μg of DNA per well was mixed with 50 μl of OptiMEM (Gibco by Life Technologies) media and incubated for 5 minutes at room temperature. Lipofectamine 2000 in a 2:1, μl of lipofectamine: μg DNA ratio was mixed with 50 μl of OptiMEM media and incubated for 5 minutes at room temperature. DNA and Lipofectamine were mixed and incubated for 15 minutes at room temperature. Fresh media was added to cells prior to the addition of DNA and lipofectamine. For 6-well transfections, the same protocol is followed except that 1.25 μg of DNA per well and 100 μl of OptiMEM for dilution was used. Media was changed 24 hours post-transfection and cells were harvested 48 hours post-transfection. Prior to harvesting, HEK293 cells were washed three times with ice-cold 1×PBS. Samples were then lysed with either 150 μl of ice-cold NETN (with protease inhibitor) or 1× Laemmli Buffer and sonicated twice for 5-8 seconds.
# (§1) For proteasome inhibition, 30 hours post-transfection cells would be replenished with DMEM containing either DMSO or 10 μM MG132 (Sigma-Aldrich) for 18 hours. Prior to harvesting, HEK293 cells were washed three times with ice-cold 1×PBS and imaged by fluorescent microscopy with a 20× objective using the Evos FL Auto Imaging System. Cells were then lysed with either 150 μl of ice-cold NETN (with protease inhibitor) or 1× Laemmli Buffer and sonicated twice for 5-8 seconds.
# as §1, with “autophagy” for “proteasome”, “24” for “30”, “and treated with” for “containing”, “5 mM 3-Methyladenine” for “10 μM MG132”, “an additional 24” for “18”
# For HEK293s′, slides were prepared by placing coverslips in 6-well plates and incubating with poly-L-lysine hydrobromide (Sigma-Aldrich) for an hour at room temperature. Coverslips were rinsed with 1×PBS three times prior to plating HEK293 cells. HEK293 cells were then transfected and fixed by incubation in 4% paraformaldehyde for 20 minutes at room temperature. Coverslips were mounted with ProLong Gold Antifade reagent and imaged with a 20× objective using the Evos FL Auto Imaging System or with a 40× objective using the Leica TCS SP5 Confocal Microscope System. For confocal, Z-stack images were obtained at […] intervals at 1024×1024 pixel resolution and merged using Fiji.
# (§2) Following sonication, lysates were subjected to BCA protein assay (ThermoFisher Scientific) and prepared for loading by the addition of 4× laemmli buffer and boiling for four minutes. Samples then loaded on SDS-polyacrylamide gels, ran at 175 V, and transferred onto an Immuno-blot PVDF membrane (Biorad) overnight at 30 V. Membranes were blocked in 5% milk in TBS with 0.1% Tween (TBST) and incubated in primary antibody overnight at 4° C. Following primary, membranes were washed for 10 minutes at room temperature three times with TBST and incubated in secondary for an hour at room temperature. Membranes were then washed for 10 minutes at room temperature three times with TBST and then incubated in buffer for enhanced chemiluminescence (50 mM Na2HPO4; 50 mM Na2CO3; 10 mM NaBO3.4H2O; 250 mM luminol; 90 mM coumaric acid).
# For HEK293 lysates, BCA protein assay was used to determine protein concentration. […]
# [2] = system: ubiquitinated species; experiment: Western blot for ubiquitin after proteasome inhibition in Dictyostelium; assay type: cell-based, Dictyostelium discoideum; settings: increasing concentrations of MG132, 18 hours
# Experimental: (§3) Following treatment, cells were imaged and/or harvested by spinning at 500 g at room temperature for 5 minutes. Cell pellets were washed three times with 1×PBS and lysed with ice-cold NETN (with protease inhibitor). Lysates were then sonicated twice for 10-15 seconds. To verify inhibition, samples were run on SDS-PAGE and analyzed by western blot for ubiquitin.
# as §2
# [3] = system: ^GFPHtt^ex1Q103; assay type: cell-based, Dictyostelium discoideum; settings: Dictyostelium
# Experimental: as §3, with “For proteasome inhibition, 5×10^6 cells were incubated with either DMSO or 100 μM MG132 (Sigma-Aldrich) for 18 hours. Following” for “Following”
# as §3, with “For Hsp70 inhibition, 1×10^7 cells were incubated either with DMSO or 80 μM VER155008 (ApexBio) for 24 hours. Following” for “Following”, “treatments,” for “treatment,”, “ATG8.” for “ubiquitin.”
# For Dictyostelium cells, 1×10^7 cells were washed three times with ice-cold starvation buffer and then imaged with a 20× objective using the Evos FL Auto Imaging System.
# [4] = system: ATG8; settings: 150 mM NH4Cl, 8 hours
# Experimental: For autophagy inhibition, 1×10^7 cells were incubated either with vehicle or 150 μM NH4Cl (Sigma-Aldrich) for 8 hours. Following treatments, cells were imaged by fluorescent microscopy and plated on coverslips at a density of 2×10^6 cells per ml and allowing cells to adhere. Cells were then washed three times with 1×PBS and fixed with 100% ice-cold methanol at −20° C. for 10 minutes. Methanol was aspirated and cells were washed twice with 1×PBT (0.1% Triton X, 0.5% BSA in 1×PBS), incubated in blocking buffer (1% Triton X, 2% BSA in 1×PBT) for 30 minutes at room temperature, and put in primary Rb anti ATG8a (courtesy of Jason King, University of Sheffield) (1:5000) overnight at 4° C. Following primary cells were washed three times with 1×PBT and incubated in secondary goat anti rabbit (Jackson ImmunoResearch Laboratories; 711-166-152) for 2 hours at room temperature. Following secondary, cells were washed an additional three times with 1×PBT and mounted on slides with ProLong Gold Antifade reagent (Invitrogen by ThermoFisher Scientific). Slides were imaged with a Nikon eclipse 90i confocal microscope.
# [5] = system: ATG8; experiment: Western blot for ATG8 after Hsp70 inhibition in Dictyostelium; assay type: cell-based, Dictyostelium discoideum; settings: 80 μM Ver155008, 24 hours
# Experimental: as §2, with “For Hsp70 inhibition, 1×10^7 cells were incubated either with DMSO or 80 μM VER155008 (ApexBio) for 24 hours. Following treatments, cells were imaged and/or harvested by spinning at 500 g at room temperature for 5 minutes. Cell pellets were washed three times with 1×PBS and lysed with ice-cold NETN (with protease inhibitor). Lysates were then sonicated twice for 10-15 seconds. To verify inhibition, samples were run on SDS-PAGE and analyzed by western blot for ATG8. Following sonication,” for “Following sonication,”
# [6] = target: T1, Htt^Q46 (Homo sapiens, UniProt P42858, INS38QQQQQQQQQQQQQQQQQQQQQQQQQ); experiment: Thioflavin-T in vitro HttQ46 aggregation assay; assay type: biochemical; settings: 3:1 peptide to HttQ46
# T1 construct: Huntingtin exon-1 with 46 glutamines (Htt^Q46) in pET-32 was obtained from Addgene; pET-32 fusion tag (N, cleaved yes); host or cells: E. coli BL21
# Experimental: Huntingtin exon-1 with 46 glutamines (Htt^Q46) in pET-32 was obtained from Addgene. Htt^Q46 was grown in BL21 cells at 37° C. to an optical density of 0.6 and induced with IPTG at 1 mM overnight at 16° C. After induction cells were spun down at 7,000 rpm for 5 minutes and resuspended in resuspension buffer (15 mM Tris-HCl buffer, pH 8.0). For lysis, lysozyme was added and cells were incubated at 4° C. for 45 minutes. To obtain soluble fraction, lysates were spun down at 12,000 rpm for 10 minutes, after which supernatant was added to 3 ml of Ni-beads (GoldBio) per 100 ml of lysate and tumbled for 4 hours at 4° C. Beads were then washed three times with resuspension buffer and then washed three more times with wash buffer (50 mM Tris-HCl pH 8.0, 150 mM NaCl, 1 mM PMSF, 1 mM EDTA). Protein was then eluted off beads by tumbling overnight at 4° C. in 25 mL of wash buffer with 250 mM imidazole.
# Aggregation assays were performed as previously described in Kakkar, V. et al. Briefly, 15 μM Htt^46Q was mixed with 90 μM SRCP1 peptide (GenScript) (1:6, 1:3, 1:1.5) and 10 μM Thioflavin-T (Sigma-Aldrich). All samples were prepared on ice in buffer containing 20 mM Tris-HCl pH 8.0, 50 mM NaCl, 2 mM CaCl2). […] Fluorescence was measured with the excitation at 440 nm and emission at 480 nm, every 5 minutes using a Tecan Plate reader.
# [7] = Solubility of SRCP1 peptide in vitro; assay type: physicochemical; settings: data not shown
# [8] = HEK293, 5 mM 3-MA for 24 hours, without SRCP1
# [9] = HEK293, 10 μM MG132 for 18 hours, absence of RFPSRCP1
# T1 sequence (P42858 with tags, fused parts or gaps with the stated changes): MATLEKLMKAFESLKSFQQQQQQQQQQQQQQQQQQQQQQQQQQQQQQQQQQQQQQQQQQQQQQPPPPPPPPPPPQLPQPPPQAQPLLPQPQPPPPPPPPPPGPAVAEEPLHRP
molecule,measurement,setting,value
"Cn1cnc(N)c2ncnc1-2 [3-MA, 3-Methyladenine, reference compound]",aggregated GFPHttex1Q74,[1]; [8],significant increase in soluble and aggregated
same,soluble GFPHttex1Q74,[1]; [8],significant increase in soluble and aggregated
"CC(C)C[C@@H](C=O)NC(=O)[C@H](CC(C)C)NC(=O)[C@H](CC(C)C)NC(=O)OCc1ccccc1 [MG132, reference compound] (Cbz-Leu-Leu-Leu-aldehyde)",accumulation of ubiquitinated species,[2],leads to an accumulation of ubiquitinated species
same,insoluble GFPHttex1Q74,[1]; [9],increased in both the insoluble and soluble fraction
same,soluble GFPHttex1Q74,[1]; [9],increased in both the insoluble and soluble fraction
same,accumulation of aggregated GFPHttex1Q103,"[3]; 100 μM MG132, 18 hours",does not result in an accumulation of aggregated
Cl.N [NH4Cl],ATG8 puncta,[4],leads to an accumulation of large ATG8 puncta
same,accumulation of aggregated GFPHttex1Q103,"[3]; 150 mM NH4Cl, 8 hours",does not lead to accumulation of aggregated
N#Cc1ccc(COC[C@H]2O[C@@H](n3c(NCc4ccc(Cl)c(Cl)c4)nc4c(N)ncnc43)[C@H](O)[C@@H]2O)cc1 [VER-155008],accumulation of aggregated GFPHttex1Q103,"[3]; 80 μM VER-155008, 24 hours",does not lead to accumulation of aggregated
same,ATG8 protein levels,[5],leads to an increase of ATG8 proteins levels
"LIWGVYGFIR [SEQ ID NO:5, peptide of SRCP1 amino acids 61-70]","HttQ46 aggregation in vitro, individual domain peptides",[6],sufficient to suppress Htt^Q46 aggregation in vitro
LIWGVYGFIRGGVGLVKWRG [SEQ ID NO:9],solubility in vitro,[7],remained soluble in vitro
VI-A: SRCP1 61-70 peptide with amino acids V65 and I69 mutated to alanine (LIWGAYGFAR),"HttQ46 aggregation in vitro, individual domain peptides",[6],loss in activity
B1,ability of SRCP1 mutant to suppress GFPHttex1Q74 aggregation,[1],lost the ability to suppress
B2,ability of SRCP1 point mutant to suppress GFPHttex1Q74 aggregation,[1],resulted in a decrease in SRCP1 function
B3,ability of SRCP1 point mutant to suppress GFPHttex1Q74 aggregation,[1],resulted in a decrease in SRCP1 function
B4,ability of SRCP1 mutant to suppress GFPHttex1Q74 aggregation,[1],did not disrupt SRCP1's ability to suppress polyQ aggregation
B5,ability of SRCP1 mutant to suppress GFPHttex1Q74 aggregation,[1],retained full activity
